Assay results from article PMC7914897, “Cytotoxic Potential of a-Azepano- and 3-Amino-3,4-SeCo-Triterpenoids” (International Journal of Molecular Sciences, 2021).

Key:
M14 (Melanoma) = test: NCI-60 screen (SRB, 48 h); conditions: Homo sapiens
HCT-15 (Colon cancer) = test: NCI-60 screen (SRB, 48 h); conditions: Homo sapiens
A498 (Renal cancer) = test: NCI-60 screen (SRB, 48 h); conditions: Homo sapiens
SN12C (Renal cancer) = test: NCI-60 screen (SRB, 48 h); conditions: Homo sapiens
SNB-75 (CNS cancer) = test: NCI-60 screen (SRB, 48 h); conditions: Homo sapiens
HCC-2998 (Colon cancer) = test: NCI-60 screen (SRB, 48 h); conditions: Homo sapiens
ACHN (Renal cancer) = test: NCI-60 screen (SRB, 48 h); conditions: Homo sapiens
SF-295 (CNS cancer) = test: NCI-60 screen (SRB, 48 h); conditions: Homo sapiens
[1] = test system: MDA-MB-31/ATCC (Breast cancer); test: NCI-60 screen (SRB, 48 h); conditions: Homo sapiens
Melanoma subpanel = test: NCI-60 screen, subpanel; conditions: Homo sapiens
CNS cancer subpanel = test: NCI-60 screen, subpanel; conditions: Homo sapiens
MALME-3M (Melanoma) = test: NCI-60 screen (SRB, 48 h); conditions: Homo sapiens
MCF7 (Breast cancer) = test: NCI-60 screen (SRB, 48 h); conditions: Homo sapiens
[2] = test system: NCI-H226 (NSC lung cancer); test: NCI-60 screen (SRB, 48 h)
HOP-92 (NSC lung cancer) = test: NCI-60 screen (SRB, 48 h); conditions: Homo sapiens
UACC-257 (Melanoma) = test: NCI-60 screen (SRB, 48 h); conditions: Homo sapiens
[3] = test system: NIH 3T3 (non-malignant mouse fibroblasts); test: SRB cytotoxicity assay, 72 h; format: cell-based; conditions: Mus musculus, NIH3T3; NIH 3T3, 72 h, cut-off 30 µM; read-out: EC50
Procedure: The cytotoxicity of compounds 1–20 was evaluated by means of a colorimetric sulforhodamine B (SRB) assay. For all compounds, the EC50 values were determined for the human tumor cell lines A375 (malignant melanoma), HT29 (colorectal carcinoma), MCF-7 (breast carcinoma), A2780 (ovarian carcinoma), FaDu (hypopharyngeal carcinoma), and NIH 3T3 (non-malignant mouse fibroblasts).
In short, exponentially growing cells were seeded into 96-well plates on day 0 at the appropriate cell densities to prevent confluence of the cells during the period of experiment. After 24 h, the cells were treated with serial dilutions of the compounds (0–30 µM) for 72 h. The final concentration of DMSO never exceeded 0.5%, which was non-toxic to the cells. After a 72 h treatment, the supernatant medium from the 96-well plates was discarded, and the cells were fixed with 10% TCA. For a thorough fixation, the plates were allowed to rest at 4 °C. After fixation, the cells were washed in a strip washer. The washing was done four times with water using alternate dispensing and aspiration procedures. The plates were then dyed with 100 µL of 0.4% SRB for about 20 min. After dying, the plates were washed with 1% acetic acid to remove the excess of the dye and allowed to air-dry overnight. Tris base solution (200 µL, 10 mM) was added to each well and absorbance was measured at λ = 570 nm (using a 96 well plate reader, Tecan Spectra, Crailsheim, Germany). The percentages of surviving cells relative to untreated controls were determined.

OVCAR-5 (Ovarian cancer) = test: NCI-60 screen (SRB, 48 h); conditions: Homo sapiens
SW-620 (Colon cancer) = test: NCI-60 screen (SRB, 48 h); conditions: Homo sapiens
HCT-116 (Colon cancer) = test: NCI-60 screen (SRB, 48 h); conditions: Homo sapiens
COLO 205 (Colon cancer) = test: NCI-60 screen (SRB, 48 h); conditions: Homo sapiens
[4] = test system: NCI-H322M (NSC lung cancer); test: NCI-60 screen (SRB, 48 h); conditions: Homo sapiens
SNB-19 (CNS cancer) = test: NCI-60 screen (SRB, 48 h); conditions: Homo sapiens

Structure (SMILES): C[C@H]1[C@H](C)CC[C@]2(CO)CC[C@]3(C)C(=CC[C@@H]4[C@@]5(C)CCCNC(C)(C)[C@@H]5CC[C@]43C)[C@H]12 [Compound 4, azepanouvaol]
- GI50 (M14 (Melanoma); M14): 1610 nM
- IC (TGI) (M14 (Melanoma); M14, 48 h, read-out: TGI): 3.12 µM
- CC50 (M14 (Melanoma); M14, read-out: LC50): 6.04 µM
- GI50 (HCT-15 (Colon cancer); HCT-15): 1390 nM
- IC (TGI) (HCT-15 (Colon cancer); HCT-15, 48 h, read-out: TGI): 2.75 µM
- CC50 (HCT-15 (Colon cancer); HCT-15, read-out: LC50): 5.52 µM
- GI50 (A498 (Renal cancer); A498): 1630 nM
- IC (TGI) (A498 (Renal cancer); A498, 48 h, read-out: TGI): 3.29 µM
- CC50 (A498 (Renal cancer); A498, read-out: LC50): 6.63 µM
- GI50 (SN12C (Renal cancer)): 1640 nM
- IC (TGI) (SN12C (Renal cancer); 48 h, read-out: TGI): 3.11 µM
- CC50 (SN12C (Renal cancer); read-out: LC50): 5.87 µM
- GI50 (SNB-75 (CNS cancer); SNB-75): 1490 nM
- IC (TGI) (SNB-75 (CNS cancer); SNB-75, 48 h, read-out: TGI): 2.9 µM
- CC50 (SNB-75 (CNS cancer); SNB-75, read-out: LC50): 5.63 µM
- GI50 (HCC-2998 (Colon cancer); HCC 2998): 1750 nM
- IC (TGI) (HCC-2998 (Colon cancer); HCC 2998, 48 h, read-out: TGI): 3.46 µM
- CC50 (HCC-2998 (Colon cancer); HCC 2998, read-out: LC50): 6.85 µM
- GI50 (ACHN (Renal cancer)): 1690 nM
- IC (TGI) (ACHN (Renal cancer); 48 h, read-out: TGI): 3.06 µM
- CC50 (ACHN (Renal cancer); read-out: LC50): 5.54 µM
- GI50 (SF-295 (CNS cancer); SF-295): 1640 nM
- IC (TGI) (SF-295 (CNS cancer); SF-295, 48 h, read-out: TGI): 3.06 µM
- CC50 (SF-295 (CNS cancer); SF-295, read-out: LC50): 5.72 µM
- GI50 [1]: 1880 nM
- IC (TGI) ([1]; 48 h, read-out: TGI): 3.48 µM
- CC50 ([1]; read-out: LC50): 6.43 µM
- IC (TGI) (Melanoma subpanel; 48 h, read-out: TGI MG_MID): 3.32 µM
- GI50 (Melanoma subpanel; read-out: GI50 MG_MID): 1740 nM
- CC50 (Melanoma subpanel; read-out: LC50 MG_MID): 6.36 µM
- IC (TGI) (CNS cancer subpanel; 48 h, read-out: TGI MG_MID): 3.2 µM
- GI50 (CNS cancer subpanel; read-out: GI50 MG_MID): 1690 nM
- CC50 (CNS cancer subpanel; read-out: LC50 MG_MID): 6.06 µM
- GI50 (MALME-3M (Melanoma)): 1680 nM
- IC (TGI) (MALME-3M (Melanoma); 48 h, read-out: TGI): 3.44 µM
- CC50 (MALME-3M (Melanoma); read-out: LC50): 7.08 µM
- GI50 (MCF7 (Breast cancer); MCF7): 1580 nM
- IC (TGI) (MCF7 (Breast cancer); MCF7, 48 h, read-out: TGI): 3.39 µM
- CC50 (MCF7 (Breast cancer); MCF7, read-out: LC50): 7.28 µM
- GI50 ([2]; Homo sapiens, NCI-H226): 2070 nM
- IC (TGI) ([2]; Homo sapiens, NCI-H226, 48 h, read-out: TGI): 4.25 µM
- Growth % of the Most Sensitive Cell Lines ([2]; NCI-H226, 1 dose 10 µM): −99.04%
- GI50 (HOP-92 (NSC lung cancer); HOP-92): 1520 nM
- IC (TGI) (HOP-92 (NSC lung cancer); HOP-92, 48 h, read-out: TGI): 3.19 µM
- CC50 (HOP-92 (NSC lung cancer); HOP-92, read-out: LC50): 6.67 µM
- GI50 (UACC-257 (Melanoma); UACC-257): 1950 nM
- IC (TGI) (UACC-257 (Melanoma); UACC-257, 48 h, read-out: TGI): 3.7 µM
- CC50 (UACC-257 (Melanoma); UACC-257, read-out: LC50): 7.01 µM
- EC50 [3]: 2770 ± 400 nM
- GI50 (OVCAR-5 (Ovarian cancer); OVCAR-5): 1690 nM
- IC (TGI) (OVCAR-5 (Ovarian cancer); OVCAR-5, 48 h, read-out: TGI): 3.18 µM
- CC50 (OVCAR-5 (Ovarian cancer); OVCAR-5, read-out: LC50): 5.99 µM
- GI50 (SW-620 (Colon cancer); SW-620): 1790 nM
- IC (TGI) (SW-620 (Colon cancer); SW-620, 48 h, read-out: TGI): 3.54 µM
- CC50 (SW-620 (Colon cancer); SW-620, read-out: LC50): 7.03 µM
- GI50 (HCT-116 (Colon cancer); HCT-116): 1490 nM
- activity at 10 µM (HCT-116 (Colon cancer); HCT-116, 48 h, read-out: Growth % of the Most Sensitive Cell Lines): -94.7%
- IC (TGI) (HCT-116 (Colon cancer); HCT-116, 48 h, read-out: TGI): 2.81 µM
- CC50 (HCT-116 (Colon cancer); HCT-116, read-out: LC50): 5.31 µM
- GI50 (COLO 205 (Colon cancer); COLO 205): 1740 nM
- IC (TGI) (COLO 205 (Colon cancer); COLO 205, 48 h, read-out: TGI): 3.46 µM
- CC50 (COLO 205 (Colon cancer); COLO 205, read-out: LC50): 6.86 µM
- GI50 [4]: 1730 nM
- IC (TGI) ([4]; 48 h, read-out: TGI): 3.19 µM
- CC50 ([4]; read-out: LC50): 5.89 µM
- GI50 (SNB-19 (CNS cancer); SNB-19): 1860 nM
- IC (TGI) (SNB-19 (CNS cancer); SNB-19, 48 h, read-out: TGI): 3.43 µM
- CC50 (SNB-19 (CNS cancer); SNB-19, read-out: LC50): 6.31 µM
